Reference: ChEMBL document CHEMBL1177645, “Crystallographic and docking studies of purine nucleoside phosphorylase from Mycobacterium tuberculosis” (Bioorg Med Chem, 2010)

What follows are compounds tested against T1, Purine nucleoside phosphorylase (Mycobacterium tuberculosis, UniProt P9WP01) (assay: Binding affinity to Mycobacterium tuberculosis purine nucleoside phosphorylase by spectrophotometric analysis).
T1 sequence (P9WP01 whole entry): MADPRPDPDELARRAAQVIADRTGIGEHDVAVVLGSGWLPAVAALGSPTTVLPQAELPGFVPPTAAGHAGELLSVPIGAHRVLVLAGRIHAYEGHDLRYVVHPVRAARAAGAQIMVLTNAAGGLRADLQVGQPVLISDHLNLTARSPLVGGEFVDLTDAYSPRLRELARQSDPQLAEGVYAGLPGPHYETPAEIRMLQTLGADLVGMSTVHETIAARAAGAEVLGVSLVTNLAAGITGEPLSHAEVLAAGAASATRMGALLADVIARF
Compound CSc1nc(N)nc2[nH]cnc12 has a Kd of 316 µM.
Work on CSc1ncnc2c1ncn2[C@@H]1O[C@H](CO)[C@@H](O)[C@H]1O yielded a Kd of 12.6 µM.
Nc1nc2c(ncn2COCCO)c(=O)[nH]1 [ACYCLOVIR] showed a Kd of 12.6 µM.
Oc1ncnc2[nH]ncc12 [ALLOPURINOL] showed a Kd of 1000 µM.
Nc1nc(O)c2ncn(COC(CO)CO)c2n1 [GANCICLOVIR] showed a Kd of 15.8 µM.
With Sc1ncnc2nc[nH]c12 [MERCAPTOPURINE ANHYDROUS] the Kd was 79.4 µM.
With O=c1[nH]c(=O)c2c[nH]nc2[nH]1 [OXYPURINOL] the Kd was 794 µM.
